# Laboratory results from PubChem BioAssay AID1918991 (Molecular Pharmacology Branch, DTP, NCI, 2023).
# System: 186277-243-T-J2-PDC complex spheroid growth
# Assay: Anticancer human tumor 186277-243-T-J2-PDC patient-derived colon adenocarcinoma cell line growth inhibition [AhR]
# Details: for IC50: curve of first compound; for viability, T/C: stronger effect = lower value
# Outline: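 Agents were dosed in half-log steps down from roughly clinical Cmax, or from 10 microM where Cmax was unknown, alone and with AhR antagonists. Read-out: percent test/control growth of tumor spheroids containing HUVEC and MSC stromal cells.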
# [1] = second compound 0.1 µM, first compound 0.0316 µM
# [2] = second compound 0.1 µM, first compound 0.1 µM
# [3] = second compound 0.1 µM, first compound 0.316 µM
# [4] = second compound 0.1 µM, first compound 1 µM
# [5] = second compound 0.1 µM, first compound 3.16 µM
# [6] = second compound 0.1 µM, first compound 10 µM
# [7] = second compound 0.316 µM, first compound 0.0316 µM
# [8] = second compound 0.316 µM, first compound 0.1 µM
# [9] = second compound 0.316 µM, first compound 0.316 µM
# [10] = second compound 0.316 µM, first compound 1 µM
# [11] = second compound 0.316 µM, first compound 3.16 µM
# [12] = second compound 0.316 µM, first compound 10 µM
# [13] = second compound 1 µM, first compound 0.0316 µM
# [14] = second compound 1 µM, first compound 0.1 µM
# [15] = second compound 1 µM, first compound 0.316 µM
# [16] = second compound 1 µM, first compound 1 µM
# [17] = second compound 1 µM, first compound 3.16 µM
# [18] = second compound 1 µM, first compound 10 µM
# [19] = second compound 3.16 µM, first compound 0.0316 µM
# [20] = second compound 3.16 µM, first compound 0.1 µM
# [21] = second compound 3.16 µM, first compound 0.316 µM
# [22] = second compound 3.16 µM, first compound 1 µM
# [23] = second compound 3.16 µM, first compound 3.16 µM
# [24] = second compound 3.16 µM, first compound 10 µM
# [25] = second compound 10 µM, first compound 0.0316 µM
# [26] = second compound 10 µM, first compound 0.1 µM
# [27] = second compound 10 µM, first compound 0.316 µM
# [28] = second compound 10 µM, first compound 1 µM
# [29] = second compound 10 µM, first compound 3.16 µM
# [30] = second compound 10 µM, first compound 10 µM
# 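Further: spheroids exposed to compounds for seven days before the viability read.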
# 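Wherever viability, T/C is given: luminescent signal used as a stand-in for viable cell amount; 100% = DMSO vehicle control wells.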
Compound,IC50 (second compound 0.1 µM) [nM],IC50 (second compound 0.316 µM) [nM],IC50 (second compound 1 µM) [nM],IC50 (second compound 3.16 µM) [nM],IC50 (second compound 10 µM) [nM],"viability, T/C [1] [%]","viability, T/C [2] [%]","viability, T/C [3] [%]","viability, T/C [4] [%]","viability, T/C [5] [%]","viability, T/C [6] [%]","viability, T/C [7] [%]","viability, T/C [8] [%]","viability, T/C [9] [%]","viability, T/C [10] [%]","viability, T/C [11] [%]","viability, T/C [12] [%]","viability, T/C [13] [%]","viability, T/C [14] [%]","viability, T/C [15] [%]",further results
O=C(C=Cc1cccc(S(=O)(=O)Nc2ccccc2)c1)NO + CC(CO)NC(=O)c1cc(-c2ccc(Cl)cc2)nn(-c2cnn(C)c2)c1=O,324,347,285,248,164,101,94.5,50.5,9.56,1.99,0.31,92.5,83.8,54.3,10.1,2,0.32,86.1,80.5,46.7,"viability, T/C [16]: 10.7%; viability, T/C [17]: 1.43%; viability, T/C [18]: 0.32%; viability, T/C [19]: 91.5%; viability, T/C [20]: 77.7%; viability, T/C [21]: 43.4%; viability, T/C [22]: 8.38%; viability, T/C [23]: 1.57%; viability, T/C [24]: 0.28%; viability, T/C [25]: 70.2%; viability, T/C [26]: 58.5%; viability, T/C [27]: 37.2%; viability, T/C [28]: 6.55%; viability, T/C [29]: 1.99%; viability, T/C [30]: 0.42%"
CC1COCCN1c1cc(C2(S(C)(=N)=O)CC2)nc(-c2ccnc3[nH]ccc23)n1 (stereo not given) + Cc1cncc(-c2nc(NCCc3c[nH]c4ccccc34)c3ncn(C(C)C)c3n2)c1,4070,3990,3720,2900,1300,85.5,119,91.6,99.5,62,6.76,96.8,97.2,87.3,106,60.9,7.2,95.4,106,97.3,"viability, T/C [16]: 106%; viability, T/C [17]: 57.1%; viability, T/C [18]: 7.29%; viability, T/C [19]: 105%; viability, T/C [20]: 105%; viability, T/C [21]: 102%; viability, T/C [22]: 105%; viability, T/C [23]: 45.5%; viability, T/C [24]: 8.1%; viability, T/C [25]: 79.2%; viability, T/C [26]: 79%; viability, T/C [27]: 70.1%; viability, T/C [28]: 60.6%; viability, T/C [29]: 18.6%; viability, T/C [30]: 5.52%"
